Reference: patent publication US20230355540A1, “STROKE TREATMENT” (Oxford University Innovation Limited, priority 2020, published 2023)

Experiments:
[1] = Mean arterial pressure through femoral artery catheter during infusion after MCAo (Examples 4 and 5); type: in vivo, rat; conditions: from 25 minutes after MCAo for 45 minutes
Procedure: Animals were randomized to receive intravenous infusion of saline (control, 0.3 ml/hr n=6) or infusion of free nitroglycerin (free-GTN, 0.25 μg/μl in saline, at 300 μl/h=4 μg/kg/min, n=6), commencing 25 minutes after MCAo.
Animals received intravenous infusion of free nitroglycerin (free-GTN, 2.5 μg/μl in saline, at 300 μl/h=40 μg/kg/min, n=4), commencing 25 minutes after MCAo. […] Vehicle control (saline) was the same control group used for 4 μg/kg/min studies (n=6).

[2] = test system: Spontaneously Hypertensive Rats, middle cerebral artery occlusion (MCAo/stroke); experiment: Collateral and control hemisphere perfusion by laser speckle contrast imaging after MCAo (Examples 4 and 5); type: in vivo, rat; conditions: from 25 minutes after MCAo for 45 minutes
[3] = test system: Spontaneously Hypertensive Rats, middle cerebral artery occlusion (MCAo/stroke); conditions: FIG. 3
Procedure: Animal experiments were performed on male Spontaneously Hypertensive Rats (SHRs) weighing 300-350 g (Harlan, Bicester, UK). All animals were housed in a 12 h light/dark cycle and had ad libitum access to food and water prior to experiments.
Rats were anesthetized with 5% isoflurane in O2/N2 (1:3) and maintained with 1% to 2% isoflurane. Core temperature was maintained at 37° C. by a thermocouple rectal probe and warming plate (Harvard Apparatus, UK). Incision sites were shaved, cleaned, and injected subcutaneously with 2 mg/kg 0.05% Bupivacaine (Aspen, UK). A femoral arterial line was used for continuous arterial pressure monitoring.
The filament was advanced into the right external carotid artery stump and up the internal carotid artery to occlude the origin of the right MCA.
Laser Doppler flowmetry (LDF) (Oxford Optronix, Oxford, UK) was used to measure changes in cerebral blood flow (CBF) in both the MCA and collateral arterial territories using dual probes. The animal's head was secured with ear bars in a stereotaxic frame. […]
Prior to MCAo, the femoral vein was cannulated with 2-French silicon tubing. […] Collateral perfusion was measured as a change from pre-injection baseline.
Prior to MCAo, the femoral vein was cannulated with 2-French silicon tubing. […] Collateral perfusion was measured as a % change from pre-injection baseline.

[4] = test system: patients suffering ultra-acute stroke; conditions: transdermal (i.e. systemic) delivery; cited from earlier work
[5] = i.v. infusion 4 μg/kg/min nitroglycerin

Compound: O=[N+]([O-])OCC(CO[N+](=O)[O-])O[N+](=O)[O-] [nitroglycerin]
- blood pressure (mean arterial pressure) [1, 5]: dropped
- blood pressure (mean arterial pressure) ([1]; i.v. infusion 40 μg/kg/min, FIG. 16): significantly dropped
- perfusion in the corresponding region of the control/contralateral hemisphere [2, 5]: no significant effect
- collateral blood perfusion (% change from pre-injection baseline) ([2]; i.v. infusion 4 μg/kg/min nitroglycerin, stroke hemisphere): did not change
- collateral blood perfusion (% change from pre-injection baseline) ([2]; i.v. infusion 40 μg/kg/min, FIG. 14): did not change
- perfusion in the corresponding region of the control/contralateral hemisphere ([2]; i.v. infusion 40 μg/kg/min, FIG. 15): no significant effect
- peak collateral perfusion ([3]; free nitroglycerin not delivered using a SA-NT, Example 3b): only a modest increase
- collateral perfusion with increasing doses ([3]; one SHR, i.v. bolus over 1 minute of 12.5, 25, 50 and 100 m, from 30 minutes after MCAo): no additional increase
- functional outcome [4]: did not improve
